Experimental data as given in patent publication US6914045B2, “Glycopeptide antibiotics” (Wyeth Holdings Corporation, priority 2001, dated 2005).

How the values were obtained:
Enterococcus sp. = experiment: in vitro antibacterial evaluation, MIC by broth dilution; assay type: cell-based; conditions: broth dilution, 18 hours at 35° C.
How it was run: (§1)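 Test organisms, which included recent clinical isolates resistant to methicillin, penicillin and/or vancomycin, were inoculated at 5×10^5 CFU/mL into Muller-Hinton II […] containing antibiotic at 64-0.06 μg/mL. Minimum inhibitory concentrations were then read as the lowest level inhibiting growth.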

Streptococcus sp. = experiment: as above; assay type: cell-based; conditions: broth dilution, 18 hours at 35° C.
How it was run: as §1

Staphylococcus sp. = experiment: as above; assay type: cell-based; conditions: broth dilution, 18 hours at 35° C.
How it was run: as §1

Escherichia coli = experiment: as above; assay type: cell-based; conditions: 18 hours at 35° C.
How it was run: as §1

[1] = tested on: Enterococcus faecalis (GC 6189); experiment: acute lethal infection in mice; assay type: in vivo; conditions: female CD-1 mice, intraperitoneal challenge, intravenous 30 min. after infection, 7 day survival
How it was run: (§2)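 Female CD-1 mice (20+/−2 gm) were infected intraperitoneally with enough bacteria, suspended in trypticase soy broth or hog gastric mucin, to kill untreated controls within 24-48 hr. Compound in saline or 5% dextrose was given intravenously 30 min post-infection, five mice per dose. ED50 came from pooled 7 day survival of 3 tests.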

[2] = tested on: Staphylococcus aureus-SMITH (GC 4543); experiment: acute lethal infection in mice; assay type: in vivo; conditions: acute lethal infection, female CD-1 mice, intraperitoneal challenge, intravenous 30 min. after infection, 7 day survival
How it was run: as §2

Cc1cccc(C2OCC3OC(OC4C(CO)OC(Oc5ccc(CC6NC(=O)C(C(C)c7ccccc7)NC(=O)CNC(=O)C(CO)NC(=O)C(C(O)C7CNC(=N)N7C7OC(CO)C(O)C(O)C7O)NC(=O)C(C(O)C7CNC(=N)N7)NC6=O)cc5)C(O)C4O)C(O)C(O)C3O2)c1 (stereo not drawn) [Example 135, Cyclo[glycyl-β-methylphenylalanyl-O-[4-O-[4,6-O-(3-methylbenzylidene)hexopyranosyl]-hexopyranosyl]tyrosyl-3-(2-iminoimidazolidin-4-yl)seryl-3-(3-hexopyranosyl-2-iminoimidazolidin-4-yl)serylseryl]]
<0.06 µg/mL: MIC Streptococcus pneumoniae (ATCC 6301) (Streptococcus sp.; Streptococcus pneumoniae (ATCC 6301)) | MIC Streptococcus pneumoniae (GC 1894) (Streptococcus sp.; Streptococcus pneumoniae (GC 1894)) | MIC Streptococcus pneumoniae (GC 4565) (Streptococcus sp.; Streptococcus pneumoniae (GC 4565)) | MIC Streptococcus pneumoniae (ATCC 6301) (Streptococcus sp.; strain ATCC 6301) | MIC Streptococcus pneumoniae (GC 1894) (Streptococcus sp.; strain GC 1894) | MIC Streptococcus pneumoniae (GC 4565) (Streptococcus sp.; strain GC 4565)
32 µg/mL: MIC Escherichia coli (ATCC 25922) (Escherichia coli; strain ATCC 25922) | MIC Escherichia coli (GC 4559) (Escherichia coli; strain GC 4559)
1 µg/mL: MIC Staphylococcus aureus (ATCC 29213) (Staphylococcus sp.) | MIC Staphylococcus aureus (GC 1131) (Staphylococcus sp.) | MIC Staphylococcus aureus (GC 3051) (Staphylococcus sp.) | MIC Staphylococcus aureus (GC 3053) (Staphylococcus sp.) | MIC Staphylococcus aureus (GC 4541) (Staphylococcus sp.) | MIC Staphylococcus aureus (GC 4542) (Staphylococcus sp.) | MIC Staphylococcus aureus (GC 4545) (Staphylococcus sp.) | MIC Staphylococcus aureus (GC 1131) (Staphylococcus sp.; inoculum 5×10^5 CFU/mL, strain GC 1131) | MIC Staphylococcus aureus (ATCC 29213) (Staphylococcus sp.; strain ATCC 29213) | MIC Staphylococcus aureus (GC 3051) (Staphylococcus sp.; strain GC 3051) | MIC Staphylococcus aureus (GC 3053) (Staphylococcus sp.; strain GC 3053) | MIC Staphylococcus aureus (GC 4541) (Staphylococcus sp.; strain GC 4541) | MIC Staphylococcus aureus (GC 4542) (Staphylococcus sp.; strain GC 4542) | MIC Staphylococcus aureus-SMITH (GC 4543) (Staphylococcus sp.; strain GC 4543) | MIC Staphylococcus aureus (GC 4545) (Staphylococcus sp.; strain GC 4545) | MIC Coagulase Negative Staphylococcus (GC 4547) (Staphylococcus sp.; strain GC 4547) | MIC Coagulase Negative Staphylococcus (GC 4551) (Staphylococcus sp.; strain GC 4551) | MIC Staphylococcus aureus-SMITH (GC 4543) (Staphylococcus sp.; strain SMITH GC 4543)
0.26 mg/kg: median effective dose (ED50), Enterococcus faecalis (GC 6189) [1]
0.5 µg/mL: MIC Staphylococcus haemolyticus (GC 4546) (Staphylococcus sp.; strain GC 4546) | MIC Coagulase Negative Staphylococcus (GC 4548) (Staphylococcus sp.; strain GC 4548) | MIC Coagulase Negative Staphylococcus (GC 4549) (Staphylococcus sp.; strain GC 4549) | MIC Coagulase Negative Staphylococcus (GC 6257) (Staphylococcus sp.; strain GC 6257) | MIC Escherichia coli (GC 4560) (Escherichia coli; strain GC 4560)
2 µg/mL: MIC Enterococcus avium (GC 4558) (Enterococcus sp.; Enterococcus avium (GC 4558)) | MIC Enterococcus faecalis (ATCC 29212) (Enterococcus sp.; Enterococcus faecalis (ATCC 29212)) | MIC Enterococcus faecalis (GC 2242) (Enterococcus sp.; Enterococcus faecalis (GC 2242)) | MIC Enterococcus faecalis (GC 2691) (Enterococcus sp.; Enterococcus faecalis (GC 2691)) | MIC Enterococcus faecalis (GC 3059) (Enterococcus sp.; Enterococcus faecalis (GC 3059)) | MIC Enterococcus faecalis (GC 4552) (Enterococcus sp.; Enterococcus faecalis (GC 4552)) | MIC Enterococcus faecalis (GC 4553) (Enterococcus sp.; Enterococcus faecalis (GC 4553)) | MIC Enterococcus faecalis (GC 4554) (Enterococcus sp.; Enterococcus faecalis (GC 4554)) | MIC Enterococcus faecalis (GC 6189) (Enterococcus sp.; Enterococcus faecalis (GC 6189)) | MIC Enterococcus faecium (GC 2243) (Enterococcus sp.; Enterococcus faecium (GC 2243)) | MIC Enterococcus faecium (GC 4556) (Enterococcus sp.; Enterococcus faecium (GC 4556)) | MIC Enterococcus faecium (GC 4557) (Enterococcus sp.; Enterococcus faecium (GC 4557)) | MIC Enterococcus faecalis (ATCC 29212) (Enterococcus sp.; strain ATCC 29212) | MIC Enterococcus faecalis (GC 2242) (Enterococcus sp.; strain GC 2242) | MIC Enterococcus faecium (GC 2243) (Enterococcus sp.; strain GC 2243) | MIC Enterococcus faecalis (GC 2691) (Enterococcus sp.; strain GC 2691) | MIC Enterococcus faecalis (GC 3059) (Enterococcus sp.; strain GC 3059) | MIC Enterococcus faecalis (GC 4552) (Enterococcus sp.; strain GC 4552) | MIC Enterococcus faecalis (GC 4553) (Enterococcus sp.; strain GC 4553) | MIC Enterococcus faecalis (GC 4554) (Enterococcus sp.; strain GC 4554) | MIC Enterococcus faecium (GC 4556) (Enterococcus sp.; strain GC 4556) | MIC Enterococcus faecium (GC 4557) (Enterococcus sp.; strain GC 4557) | MIC Enterococcus avium (GC 4558) (Enterococcus sp.; strain GC 4558) | MIC Enterococcus faecalis (GC 6189) (Enterococcus sp.; strain GC 6189) | MIC Staphylococcus aureus (GC 4544) (Staphylococcus sp.) | MIC Staphylococcus aureus (GC 4544) (Staphylococcus sp.; strain GC 4544)
0.07 mg/kg: median effective dose (ED50), Staphylococcus aureus-SMITH (GC 4543) [2]
0.25 µg/mL: MIC Streptococcus agalactiae (GC 4564) (Streptococcus sp.; Streptococcus agalactiae (GC 4564)) | MIC Streptococcus pyogenes (GC 4563) (Streptococcus sp.; Streptococcus pyogenes (GC 4563)) | MIC Streptococcus pyogenes (GC 4563) (Streptococcus sp.; strain GC 4563) | MIC Streptococcus agalactiae (GC 4564) (Streptococcus sp.; strain GC 4564)
